Legend:
[1] = target: KRAS G12D (Homo sapiens, UniProt P01116, G12D); assay: GDP-GTP exchange assay (KRAS G12D); assay type: biochemical; settings: bodipy-GDP/GppNHp exchange with SOS1; 4 h pre-incubation, 2 h reaction
Protocol: (§1) The inhibitor potency of the exemplified compounds was determined in a fluorescence based guanine nucleotide exchange assay, which measures the exchange of bodipy-GDP (fluorescently labeled GDP) for GppNHp (Non-hydrolyzable GTP analog) to generate the active state of KRAS in the presence of SOS1 (guanine nucleotide exchange factor). Inhibitors were serially diluted in DMSO and a volume of 0.1 μL was transferred to the wells of a black low volume 384-well plate. 5 μL/well volume of bodipy-loaded KRAS G12D diluted to 2.5 nM in assay buffer (25 mM Hepes pH 7.5, 50 mM NaCl, 10 mM MgCl2 and 0.01% Brij-35) was added to the plate and pre-incubated with inhibitor for 4 h at r.t. Appropriate controls (enzyme with no inhibitor or with a G12D inhibitor) were included on the plate. The exchange was initiated by the addition of a 5 μL/well volume containing 1 mM GppNHp and 300 nM SOS1 in assay buffer. The 10 μL/well reaction concentration of the bodipy-loaded KRAS G12D, GppNHp, and SOS1 were 2.5 nM, 500 μM, and 150 nM, respectively. The reaction plates were incubated at r.t. for 2 h, a time estimated for complete GDP-GTP exchange in the absence of inhibitor. For the KRAS G12V mutant, similar guanine nucleotide exchange assays were used with 2.5 nM as final concentration for the bodipy loaded KRAS proteins and 3 h incubation after adding GppNHp-SOS1 mixture. A cyclic peptide described to selectively bind G12D mutant (Sakamoto et al., BBRC 484.3 (2017), 605-611) or internal compounds with confirmed binding were used as positive controls in the assay plates. Fluorescence intensities were measured on a PheraStar plate reader instrument (BMG Labtech) with excitation at 485 nm and emission at 520 nm.
(§2) Either GraphPad prism or Genedata Screener SmartFit was used to analyze the data. The IC50 values were derived by fitting the data to a four parameter logistic equation producing a sigmoidal dose-response curve with a variable Hill coefficient.
(§3) The symbol “⬆” indicates IC50 100 nM, “⬆⬆” indicates IC50 >100 nM but ≤1 μM; and “⬆⬆⬆” indicates IC50 is >1 μM but ≤5 μM, “⬆⬆⬆⬆” indicates IC50 is >5 μM but ≤10 μM. “NA” indicates IC50 not available.

[2] = target: KRAS G12V (Homo sapiens, UniProt P01116, G12V); assay: GDP-GTP exchange assay (KRAS G12V); assay type: biochemical; settings: bodipy-GDP/GppNHp exchange with SOS1; 3 h incubation after GppNHp-SOS1
Protocol: as §1, §2, §3
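Note: one dagger IC50 up to 100 nM and two daggers above 100 nM up to 1 μM.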

Chain of KRAS G12V (P01116 1-188 isoform P01116-2 G12V): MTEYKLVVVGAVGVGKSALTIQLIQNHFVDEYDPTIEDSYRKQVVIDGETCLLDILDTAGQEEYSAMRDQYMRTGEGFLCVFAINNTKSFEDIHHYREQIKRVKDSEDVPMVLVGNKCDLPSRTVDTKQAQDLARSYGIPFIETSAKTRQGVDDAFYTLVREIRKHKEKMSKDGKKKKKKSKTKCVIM
Chain of KRAS G12D (P01116 1-188 isoform P01116-2 G12D): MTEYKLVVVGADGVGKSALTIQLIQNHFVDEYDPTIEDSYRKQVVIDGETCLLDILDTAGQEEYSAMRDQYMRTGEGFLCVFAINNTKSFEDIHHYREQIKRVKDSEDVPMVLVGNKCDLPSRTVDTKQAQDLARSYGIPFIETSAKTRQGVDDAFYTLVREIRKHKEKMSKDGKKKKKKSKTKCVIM

Row | Structure (SMILES) | G12D_exchange (KRAS_G12D exchange assay IC50) [1] | G12V_exchange (KRAS_G12V exchange assay IC50) [2]
1 | Cc1nc2c(F)c(-c3cccc(Cl)c3Cl)c(CCC#N)cc2c2c1cc([C@H]1[C@H]3C[C@H](CN(c4ncc(C)n4C)C3)N1C(=O)C1CC1)n2[C@H]1[C@H]2CN[C@@H]1C2 (atropisomer, axis not shown; (Ra)) [Example 101, 3-((Ra)-1-((1R,4R,5S)-2-azabicyclo[2.1.1]hexan-5-yl)-2-((1S,5R,7R)-6-(cyclopropanecarbonyl)-3-(1,5-dimethyl-1H-imidazol-2-yl)-3,6-diazabicyclo[3.2.1]octan-7-yl)-7-(2,3-dichlorophenyl)-6-fluoro-4-methyl-1H-pyrrolo[3,2-c]quinolin-8-yl)propanenitrile] | † | †
2 | Cc1nc2c(F)c(-c3cccc(Cl)c3Cl)c(CCC#N)cc2c2c1cc([C@H]1[C@H]3C[C@H](CN(c4ncc(C(F)F)s4)C3)N1C(=O)C1CC1)n2[C@H]1[C@H]2CN[C@@H]1C2 (atropisomer, axis not shown; (Ra)) [Example 102, 3-((Ra)-1-((1R,4R,5S)-2-azabicyclo[2.1.1]hexan-5-yl)-2-((1S,5R,7R)-6-(cyclopropanecarbonyl)-3-(5-(difluoromethyl)thiazol-2-yl)-3,6-diazabicyclo[3.2.1]octan-7-yl)-7-(2,3-dichlorophenyl)-6-fluoro-4-methyl-1H-pyrrolo[3,2-c]quinolin-8-yl)propanenitrile] | † | †
3 | Cc1nc2c(F)c(-c3cccc(Cl)c3Cl)c(CCC#N)cc2c2c1cc([C@H]1[C@H]3C[C@H](CN(C(=O)NCC(F)(F)F)C3)N1C(=O)C1CC1)n2[C@H]1[C@H]2CN[C@@H]1C2 (atropisomer, axis not shown; (Ra)) [Example 109, (1 S,5R,7R)-7-((Ra)-1-((1R,4R,5S)-2-Azabicyclo[2.1.1]hexan-5-yl)-8-(2-cyanoethyl)-7-(2,3-dichlorophenyl)-6-fluoro-4-methyl-1H-pyrrolo[3,2-c]quinolin-2-yl)-6-(cyclopropanecarbonyl)-N-(2,2,2-trifluoroethyl)-3,6-diazabicyclo[3.2.1]octane-3-carboxamide] | † | †
4 | Cc1nc2c(F)c(-c3cccc(Cl)c3Cl)c(CCC#N)cc2c2c1cc(C1C3CC(CN(C4CCCCC4)C3)N1C(=O)C1CC1)n2C1C2CNC1C2 (atropisomer, axis not shown; (Ra)) [Example 114, 3-((Ra)-1-((1R,4R,5S)-2-Azabicyclo[2.1.1]hexan-5-yl)-2-((1R,5R,7R)-3-cyclohexyl-6-(cyclopropanecarbonyl)-3,6-diazabicyclo[3.2.1]octan-7-yl)-7-(2,3-dichlorophenyl)-6-fluoro-4-methyl-1H-pyrrolo[3,2-c]quinolin-8-yl)propanenitrile] | † | †
5 | Cc1nc2c(F)c(-c3cccc(Cl)c3Cl)c(CCC#N)cc2c2c1cc([C@H]1[C@H]3C[C@H](C(=O)N(c4ccc(C(F)(F)F)cc4)C3)N1C(=O)C1CC1)n2[C@H]1[C@H]2CN[C@@H]1C2 (atropisomer, axis not shown; (Ra)) [Example 120b, 3-((Ra)-1-((1R,4R,5S)-2-Azabicyclo[2.1.1]hexan-5-yl)-2-((1S,5R,7R)-6-(cyclopropanecarbonyl)-4-oxo-3-(4-(trifluoromethyl)phenyl)-3,6-diazabicyclo[3.2.1]octan-7-yl)-7-(2,3-dichlorophenyl)-6-fluoro-4-methyl-1H-pyrrolo[3,2-c]quinolin-8-yl)propanenitrile] | † | †
6 | [2H]C1([2H])[C@@H]2C[C@H](CN1c1ncc(C(C)C)s1)N(C(=O)C1CC1)[C@H]2c1cc2c(C)nc3c(F)c(-c4cccc(Cl)c4Cl)c(CCC#N)cc3c2n1[C@H]1[C@H]2CN[C@@H]1C2 (atropisomer, axis not shown; (Ra)) [Example 123, 3-((Ra)-1-((1R,4R,5S)-2-Azabicyclo[2.1.1]hexan-5-yl)-2-((1 S,5R,7R)-6-(cyclopropanecarbonyl)-3-(5-isopropylthiazol-2-yl)-3,6-diazabicyclo[3.2.1]octan-7-yl-2,2-d2)-7-(2,3-dichlorophenyl)-6-fluoro-4-methyl-1H-pyrrolo[3,2-c]quinolin-8-yl)propanenitrile] | †† | †

Continued, values first:

Row | G12D_exchange (KRAS_G12D exchange assay IC50) [1] | G12V_exchange (KRAS_G12V exchange assay IC50) [2] | Structure (SMILES)
7 | †† | † | COc1nccc(N2C[C@@H]3C[C@H](C2)N(C(=O)C2CC2)[C@H]3c2cc3c(C)nc4c(F)c(-c5cccc(Cl)c5Cl)c(CCC#N)cc4c3n2[C@H]2[C@H]3CN[C@@H]2C3)c1C (atropisomer, axis not shown; (Ra)) [Example 77, 3-((Ra)-1-((1R,4R,5S)-2-azabicyclo[2.1.1]hexan-5-yl)-2-((1S,5R,7R)-6-(cyclopropanecarbonyl)-3-(2-methoxy-3-methylpyridin-4-yl)-3,6-diazabicyclo[3.2.1]octan-7-yl)-7-(2,3-dichlorophenyl)-6-fluoro-4-methyl-1H-pyrrolo[3,2-c]quinolin-8-yl)propanenitrile]
8 | † | † | Cc1nc2c(F)c(-c3cccc(Cl)c3Cl)c(CCC#N)cc2c2c1cc([C@H]1[C@H]3C[C@H](CN(c4ccnc(OCC5CC5)c4)C3)N1C(=O)C1CC1)n2[C@H]1[C@H]2CN[C@@H]1C2 (atropisomer, axis not shown; (Ra)) [Example 82, 3-((Ra)-1-((1R,4R,5S)-2-azabicyclo[2.1.1]hexan-5-yl)-2-((1S,5R,7R)-6-(cyclopropanecarbonyl)-3-(2-(cyclopropylmethoxy)pyridin-4-yl)-3,6-diazabicyclo[3.2.1]octan-7-yl)-7-(2,3-dichlorophenyl)-6-fluoro-4-methyl-1H-pyrrolo[3,2-c]quinolin-8-yl)propanenitrile]
9 | †† | † | Cc1nc2c(F)c(-c3cccc(Cl)c3Cl)c(CCC#N)cc2c2c1cc([C@H]1[C@H]3C[C@H](CN(c4ccc(C(F)(F)F)cc4)C3=O)N1C(=O)C1CC1)n2[C@H]1[C@H]2CN[C@@H]1C2 (atropisomer, axis not shown; (Ra)) [Example 120a, 3-((Ra)-1-((1R,4R,5S)-2-Azabicyclo[2.1.1]hexan-5-yl)-2-((1R,5R,7R)-6-(cyclopropanecarbonyl)-2-oxo-3-(4-(trifluoromethyl)phenyl)-3,6-diazabicyclo[3.2.1]octan-7-yl)-7-(2,3-dichlorophenyl)-6-fluoro-4-methyl-1H-pyrrolo[3,2-c]quinolin-8-yl)propanenitrile]

— US20250195536A1, “BICYCLOOCTANE KRAS INHIBITORS” (Incyte Corporation, priority 2023, published 2025)
